Results reported in publication PMC8536830 (Current Biology, 2021).
pEC50: −log10 of the molar value.

Key:
[1] = target: T1, LGC-50 S335A, T348A, S353A (Caenorhabditis elegans, UniProt P41849, S335A/S353A/T348A); assay: Two-electrode voltage clamp, 5-HT evoked dose response, LGC-50 phospho-dead mutant; assay type: cell-based, C. elegans
T1 construct: Plasmid: KSM: lgc-50 (cDNA, S335A, T348A, S353A); expressed in transfected cells; host or cells: Xenopus laevis oocytes injected with cRNA (plasmid pIH128)
T1 sequence (P41849 20-491 S335A/T348A/S353A): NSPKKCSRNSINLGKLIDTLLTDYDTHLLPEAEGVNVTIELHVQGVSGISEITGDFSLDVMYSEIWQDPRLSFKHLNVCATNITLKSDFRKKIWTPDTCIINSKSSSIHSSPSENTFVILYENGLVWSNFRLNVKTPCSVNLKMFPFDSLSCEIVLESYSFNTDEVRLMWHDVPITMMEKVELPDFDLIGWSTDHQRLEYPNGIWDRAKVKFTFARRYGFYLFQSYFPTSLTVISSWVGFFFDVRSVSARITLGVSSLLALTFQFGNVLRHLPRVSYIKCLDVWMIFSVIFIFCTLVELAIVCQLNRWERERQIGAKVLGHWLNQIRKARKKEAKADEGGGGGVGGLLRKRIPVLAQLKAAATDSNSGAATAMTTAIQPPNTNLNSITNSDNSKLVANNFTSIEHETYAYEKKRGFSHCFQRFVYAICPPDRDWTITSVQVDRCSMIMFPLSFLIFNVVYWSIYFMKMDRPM
From the text: (§1) In addition to this region, we also investigated three upstream predicted phosphorylation sites. Phosphorylation of the M3/4 loop has previously been implicated in the trafficking and cell surface recycling of GABAA receptors.[23]^,[24] The first site in the M3/4 loop of LGC-50, S335, is predicted to be a cdc2 site, and T348 and S353 are predicted protein kinase C (PKC) or PKA sites (Table S2).[25]^,[26] We introduced both phosphorylation-dead alanine mutations and phosphomimic aspartate mutations into these sites to assess their effect on receptor trafficking. […]
(§2) Two-electrode voltage clamp recordings were carried out using the Robocyte2 recording system or a manual TEVC set up, using an OC-725D amplifier (Multi Channel Systems, Reutlingen, Germany) and paired with a custom-made recording chamber and agar bridges from reference and bath electrodes. […] Data was recorded using WinWCP or RoboCyte2 control software, manual data was filtered at 10 Hz.
(§3) Dose response curves were calculated from the peak current during a 10 s agonist stimulation in ND96 solution, with a 60 s ND96 wash in between doses. […] Normalized dose response data was fitted to a nonlinear curve using a four parameters variable slope and the EC50 and Hill slope was calculated. […] Kinetic measurements were calculated from a 60 s agonist perfusion. […]

[2] = target: T2, LGC-50 S335D, T348D, S353A (Caenorhabditis elegans, UniProt P41849, S335D/S353A/); assay: Two-electrode voltage clamp, 5-HT evoked dose response, LGC-50 phosphomimic mutant; assay type: cell-based, C. elegans
T2 construct: Plasmid: KSM: lgc-50 (cDNA, S335D, T348A, S353A); expressed in transfected cells; host or cells: Xenopus laevis oocytes injected with cRNA (probably plasmid pIH134)
T2 sequence (P41849 20-491 S335D/T348A/S353A): as the sequence (P41849 20-491 S335A/T348A/S353A) above, with A316D counted along it
From the text: as §1, §2, §3

Compound: NCCc1c[nH]c2ccc(O)cc12 [5-HT, serotonin]
- pEC50 [1]: 6.24
- pEC50 [2]: 6.14
